# Data reported in paper PMC11079024, “Identification of a family of species-selective complex I inhibitors as potential anthelmintics” (Nature Communications, 2024).
# Several values for one entry are separate records, joined by “and”; a condition that tells them apart may be missing. Equal entries are not always repeated. Where two headings read alike, the source gives them in different places.
# Molecular target: C. elegans (N2) complex I (NADH:ubiquinone oxidoreductase) (Caenorhabditis elegans, UniProt P24887+Q93873+Q94360)
# Experiment: biochemical
# Format: biochemical
# Method in brief: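 Complex I rate: initial linear slope of A600 over 15 min, expressed as percent of solvent control. Triple freeze-thawed mitochondria (0.2 mg/mL) in KPi pH 7.5, BSA 3 mg/mL, NADH 80 μM, decylubiquinone 60 μM, DCIP 160 μM, antimycin A, KCN.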
# C. elegans (N2) complex I (NADH:ubiquinone oxidoreductase), sequence (Q94360 17-199): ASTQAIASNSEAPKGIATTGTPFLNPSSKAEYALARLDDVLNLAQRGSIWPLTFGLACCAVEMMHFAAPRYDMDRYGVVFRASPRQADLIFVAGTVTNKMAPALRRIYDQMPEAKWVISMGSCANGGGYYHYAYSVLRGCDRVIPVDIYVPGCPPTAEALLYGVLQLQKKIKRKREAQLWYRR
# C. elegans (N2) complex I (NADH:ubiquinone oxidoreductase), sequence (P24887 whole entry): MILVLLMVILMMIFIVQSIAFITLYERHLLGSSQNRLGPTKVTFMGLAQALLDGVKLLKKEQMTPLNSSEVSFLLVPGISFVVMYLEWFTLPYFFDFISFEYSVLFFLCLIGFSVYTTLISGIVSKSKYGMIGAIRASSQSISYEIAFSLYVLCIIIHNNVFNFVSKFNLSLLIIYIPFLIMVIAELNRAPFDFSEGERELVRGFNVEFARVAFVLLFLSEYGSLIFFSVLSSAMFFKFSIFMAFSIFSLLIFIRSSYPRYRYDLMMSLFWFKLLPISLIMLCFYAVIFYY
# C. elegans (N2) complex I (NADH:ubiquinone oxidoreductase), sequence (Q93873 31-482): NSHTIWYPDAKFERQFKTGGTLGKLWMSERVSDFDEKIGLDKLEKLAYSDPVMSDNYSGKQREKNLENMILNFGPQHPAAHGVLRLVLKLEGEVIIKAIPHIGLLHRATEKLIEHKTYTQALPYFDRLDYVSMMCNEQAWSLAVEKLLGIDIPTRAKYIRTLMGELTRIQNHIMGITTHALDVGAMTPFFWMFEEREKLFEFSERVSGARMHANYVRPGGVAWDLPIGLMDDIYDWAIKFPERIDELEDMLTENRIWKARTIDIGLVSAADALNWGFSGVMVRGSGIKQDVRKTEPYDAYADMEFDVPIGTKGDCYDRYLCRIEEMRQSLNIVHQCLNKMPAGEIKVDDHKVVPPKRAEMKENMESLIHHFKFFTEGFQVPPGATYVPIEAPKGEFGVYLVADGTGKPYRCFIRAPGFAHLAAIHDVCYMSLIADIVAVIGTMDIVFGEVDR
smiles,measurement,setting,value
"COC(=O)Nc1nc2ccc(Sc3ccccc3)cc2[nH]1 [fenbendazole, reference compound]",remaining activity at 0.125 µM,"0.125 µM, wild-type C. elegans mitochondria, mean of replicates, read-out: percent (%) in vitro complex I activity relative to solvent control",103%
same,percent (%) in vitro complex I activity relative to solvent control,"0.125 µM, wild-type C. elegans mitochondria, single replicate",106.082% and 99.397%
same,remaining activity at 0.125 µM,"0.125 µM, wild-type C. elegans mitochondria, single replicate, read-out: percent (%) in vitro complex I activity relative to solvent control",102%
same,remaining activity at 0.313 µM,"0.313 µM, wild-type C. elegans mitochondria, mean of replicates, read-out: percent (%) in vitro complex I activity relative to solvent control",101%
same,percent (%) in vitro complex I activity relative to solvent control,"0.313 µM, wild-type C. elegans mitochondria, single replicate",105.067% and 102.773%
same,remaining activity at 0.313 µM,"0.313 µM, wild-type C. elegans mitochondria, single replicate, read-out: percent (%) in vitro complex I activity relative to solvent control",101%
same,remaining activity at 0.625 µM,"0.625 µM, wild-type C. elegans mitochondria, mean of replicates, read-out: percent (%) in vitro complex I activity relative to solvent control",101%
same,percent (%) in vitro complex I activity relative to solvent control,"0.625 µM, wild-type C. elegans mitochondria, single replicate",108.826% and 84.037% and 107.828% and 101.922%
same,remaining activity at 1.5 µM,"1.5 µM, wild-type C. elegans mitochondria, mean of replicates, read-out: percent (%) in vitro complex I activity relative to solvent control",101%
same,percent (%) in vitro complex I activity relative to solvent control,"1.5 µM, wild-type C. elegans mitochondria, single replicate",107.818% and 102.911% and 106.921% and 84.834%
same,remaining activity at 3 µM,"3 µM, wild-type C. elegans mitochondria, mean of replicates, read-out: percent (%) in vitro complex I activity relative to solvent control",108%
same,percent (%) in vitro complex I activity relative to solvent control,"3 µM, wild-type C. elegans mitochondria, single replicate",108.394% and 103.450%
same,remaining activity at 3 µM,"3 µM, wild-type C. elegans mitochondria, single replicate, read-out: percent (%) in vitro complex I activity relative to solvent control",111%
same,remaining activity at 15 µM,"15 µM, wild-type C. elegans mitochondria, mean of replicates, read-out: percent (%) in vitro complex I activity relative to solvent control",103%
same,percent (%) in vitro complex I activity relative to solvent control,"15 µM, wild-type C. elegans mitochondria, single replicate",105.414% and 100.145%
same,remaining activity at 15 µM,"15 µM, wild-type C. elegans mitochondria, single replicate, read-out: percent (%) in vitro complex I activity relative to solvent control",104%
same,remaining activity at 37.5 µM,"37.5 µM, wild-type C. elegans mitochondria, mean of replicates, read-out: percent (%) in vitro complex I activity relative to solvent control",106%
same,percent (%) in vitro complex I activity relative to solvent control,"37.5 µM, wild-type C. elegans mitochondria, single replicate",108.185% and 102.298%
same,remaining activity at 37.5 µM,"37.5 µM, wild-type C. elegans mitochondria, single replicate, read-out: percent (%) in vitro complex I activity relative to solvent control",112%
same,remaining activity at 75 µM,"75 µM, wild-type C. elegans mitochondria, mean of replicates, read-out: percent (%) in vitro complex I activity relative to solvent control",99.7%
same,percent (%) in vitro complex I activity relative to solvent control,"75 µM, wild-type C. elegans mitochondria, single replicate",105.576% and 98.309%
same,remaining activity at 75 µM,"75 µM, wild-type C. elegans mitochondria, single replicate, read-out: percent (%) in vitro complex I activity relative to solvent control",98.1%
same,remaining activity at 0.0001 µM,"dose 0.0001 µM, wild-type C. elegans, mean of replicates, read-out: in vitro complex I activity relative to solvent control, Mean",92.7%
same,"in vitro complex I activity relative to solvent control, individual replicate","dose 0.0001 µM, wild-type C. elegans, single replicate",89.632% and 90.262%
same,remaining activity at 0.0001 µM,"dose 0.0001 µM, wild-type C. elegans, single replicate, read-out: in vitro complex I activity relative to solvent control, individual replicate",94.2%
same,remaining activity at 0.0005 µM,"dose 0.0005 µM, wild-type C. elegans, mean of replicates, read-out: in vitro complex I activity relative to solvent control, Mean",102%
same,"in vitro complex I activity relative to solvent control, individual replicate","dose 0.0005 µM, wild-type C. elegans, single replicate",109.063% and 93.803% and 100.567%
same,remaining activity at 0.0005 µM,"dose 0.0005 µM, wild-type C. elegans, single replicate, read-out: in vitro complex I activity relative to solvent control, individual replicate",104%
same,remaining activity at 0.001 µM,"dose 0.001 µM, wild-type C. elegans, mean of replicates, read-out: in vitro complex I activity relative to solvent control, Mean",107%
same,"in vitro complex I activity relative to solvent control, individual replicate","dose 0.001 µM, wild-type C. elegans, single replicate",112.362% and 106.090% and 103.456%
same,remaining activity at 0.001 µM,"dose 0.001 µM, wild-type C. elegans, single replicate, read-out: in vitro complex I activity relative to solvent control, individual replicate",107%
same,remaining activity at 0.0025 µM,"dose 0.0025 µM, wild-type C. elegans, mean of replicates, read-out: in vitro complex I activity relative to solvent control, Mean",106%
same,"in vitro complex I activity relative to solvent control, individual replicate","dose 0.0025 µM, wild-type C. elegans, single replicate",111.626% and 103.191% and 101.180%
same,remaining activity at 0.0025 µM,"dose 0.0025 µM, wild-type C. elegans, single replicate, read-out: in vitro complex I activity relative to solvent control, individual replicate",107%
same,remaining activity at 0.005 µM,"dose 0.005 µM, wild-type C. elegans, mean of replicates, read-out: in vitro complex I activity relative to solvent control, Mean",106%
same,"in vitro complex I activity relative to solvent control, individual replicate","dose 0.005 µM, wild-type C. elegans, single replicate",110.787% and 104.169% and 105.146%
same,remaining activity at 0.005 µM,"dose 0.005 µM, wild-type C. elegans, single replicate, read-out: in vitro complex I activity relative to solvent control, individual replicate",104%
same,remaining activity at 0.013 µM,"dose 0.013 µM, wild-type C. elegans, mean of replicates, read-out: in vitro complex I activity relative to solvent control, Mean",105%
same,"in vitro complex I activity relative to solvent control, individual replicate","dose 0.013 µM, wild-type C. elegans, single replicate",109.484% and 102.444% and 103.368%
same,remaining activity at 0.013 µM,"dose 0.013 µM, wild-type C. elegans, single replicate, read-out: in vitro complex I activity relative to solvent control, individual replicate",105%
same,remaining activity at 0.025 µM,"dose 0.025 µM, wild-type C. elegans, mean of replicates, read-out: in vitro complex I activity relative to solvent control, Mean",108%
same,"in vitro complex I activity relative to solvent control, individual replicate","dose 0.025 µM, wild-type C. elegans, single replicate",112.068% and 112.677% and 102.223%
same,remaining activity at 0.025 µM,"dose 0.025 µM, wild-type C. elegans, single replicate, read-out: in vitro complex I activity relative to solvent control, individual replicate",106%
same,remaining activity at 0.063 µM,"dose 0.063 µM, wild-type C. elegans, mean of replicates, read-out: in vitro complex I activity relative to solvent control, Mean",102%
same,"in vitro complex I activity relative to solvent control, individual replicate","dose 0.063 µM, wild-type C. elegans, single replicate",106.376% and 104.996% and 99.618%
same,remaining activity at 0.063 µM,"dose 0.063 µM, wild-type C. elegans, single replicate, read-out: in vitro complex I activity relative to solvent control, individual replicate",98%
same,remaining activity at 0.125 µM,"dose 0.125 µM, wild-type C. elegans, mean of replicates, read-out: in vitro complex I activity relative to solvent control, Mean",103%
same,"in vitro complex I activity relative to solvent control, individual replicate","dose 0.125 µM, wild-type C. elegans, single replicate",106.082% and 99.397%
same,remaining activity at 0.125 µM,"dose 0.125 µM, wild-type C. elegans, single replicate, read-out: in vitro complex I activity relative to solvent control, individual replicate",104%
same,remaining activity at 0.313 µM,"dose 0.313 µM, wild-type C. elegans, mean of replicates, read-out: in vitro complex I activity relative to solvent control, Mean",101%
same,"in vitro complex I activity relative to solvent control, individual replicate","dose 0.313 µM, wild-type C. elegans, single replicate",105.067% and 102.773%
same,remaining activity at 0.313 µM,"dose 0.313 µM, wild-type C. elegans, single replicate, read-out: in vitro complex I activity relative to solvent control, individual replicate",96.6%
same,remaining activity at 0.625 µM,"dose 0.625 µM, wild-type C. elegans, mean of replicates, read-out: in vitro complex I activity relative to solvent control, Mean",101%
same,"in vitro complex I activity relative to solvent control, individual replicate","dose 0.625 µM, wild-type C. elegans, single replicate",84.037% and 107.828% and 101.922% and 108.826%
same,remaining activity at 1.5 µM,"dose 1.5 µM, wild-type C. elegans, mean of replicates, read-out: in vitro complex I activity relative to solvent control, Mean",101%
same,"in vitro complex I activity relative to solvent control, individual replicate","dose 1.5 µM, wild-type C. elegans, single replicate",102.911% and 106.921% and 84.834% and 107.818%
same,remaining activity at 3 µM,"dose 3 µM, wild-type C. elegans, mean of replicates, read-out: in vitro complex I activity relative to solvent control, Mean",108%
same,"in vitro complex I activity relative to solvent control, individual replicate","dose 3 µM, wild-type C. elegans, single replicate",108.394% and 103.450%
same,remaining activity at 3 µM,"dose 3 µM, wild-type C. elegans, single replicate, read-out: in vitro complex I activity relative to solvent control, individual replicate",107%
same,remaining activity at 15 µM,"dose 15 µM, wild-type C. elegans, mean of replicates, read-out: in vitro complex I activity relative to solvent control, Mean",103%
same,"in vitro complex I activity relative to solvent control, individual replicate","dose 15 µM, wild-type C. elegans, single replicate",105.414% and 100.145%
same,remaining activity at 15 µM,"dose 15 µM, wild-type C. elegans, single replicate, read-out: in vitro complex I activity relative to solvent control, individual replicate",101%
same,remaining activity at 37.5 µM,"dose 37.5 µM, wild-type C. elegans, mean of replicates, read-out: in vitro complex I activity relative to solvent control, Mean",106%
same,"in vitro complex I activity relative to solvent control, individual replicate","dose 37.5 µM, wild-type C. elegans, single replicate",108.185% and 102.298%
same,remaining activity at 37.5 µM,"dose 37.5 µM, wild-type C. elegans, single replicate, read-out: in vitro complex I activity relative to solvent control, individual replicate",103%
same,remaining activity at 75 µM,"dose 75 µM, wild-type C. elegans, mean of replicates, read-out: in vitro complex I activity relative to solvent control, Mean",99.7%
same,"in vitro complex I activity relative to solvent control, individual replicate","dose 75 µM, wild-type C. elegans, single replicate",105.576% and 98.309%
same,remaining activity at 75 µM,"dose 75 µM, wild-type C. elegans, single replicate, read-out: in vitro complex I activity relative to solvent control, individual replicate",96.8%
